Reference: US20250353827A1, “INDOLINE DERIVATIVES AS SEROTONERGIC AGENTS USEFUL FOR THE TREATMENT OF DISORDERS RELATED THERETO” (MINDSET PHARMA INC., priority 2022, published 2025)
Where “and” joins values, the source holds several entries; their conditions need not be identical. Identical values can stand only once.

Key:
Male, C57BL/6J mice = assay: Mouse head twitch; format: in vivo; settings: for head twitches (mean): counted over 1 hr, male C57BL/6J mice
Procedure: The effect of different doses of representative compounds of Formula I were evaluated on head-twitch response (HTR) and other behavioural responses as behavior-based models of psychedelic activity.
Male, C57BL/6J mice (body weight range 20-30 g) were dosed with the appropriate dose of test article, and following a 1-minute pre-treatment time, placed in individual observation chambers. Animals were visually assessed for the incidence head twitches continuously over a 1 hr period. Head twitches were defined as a rapid jerk of the head which was not elicited by an external tactile stimulus (Come and Pickering, Psychopharmacologia, 1967, 11(1): 65-78). Each head twitch was individually counted by a trained observer, and the data was expressed as the mean±SEM of 6-10 mice per group. Mice were used in a single experiment only.
The head twitch response of exemplary compound II-1 (1-30 mg/kg SC) was compared to 5-MeO DMT and psilocybin (FIG. 1, Table 6).

[1] = target: T1, human 5-HT2A (h5-HT2A) receptor (Homo sapiens, UniProt P28223); assay: FLIPR assay, human 5-HT2A receptor under agonist mode; format: cell-based; settings: 5-HT2A (FLIPR); for RFU@10 μM: RFU=Fmax−Fmin; for EC50: read-out: EC50
T1 construct: expressed in transfected cells; cultured under G418 and hygromycin B selection
Procedure: I. Assessment of the Effect of Exemplary Compounds of Formula I Targeting on Human 5-HT2A (h5-HT2A) Receptor Under Agonist Mode
• 1. Cells were cultured in cell culture medium (DMEM containing 10% FBS, 1×penicillin-streptomycin 300 μg/ml G418 and 100 μg/ml hygromycin B) at 37° C., 5% (v/v) CO2. • 2. One day before the assays, the cells were detached using TrypLE™ Express and cells were counted using cell counter. Only cells with >85% viability were used for the assay. • 3. 20000 cells/well were seeded in 30 μl/well culture medium to a 384-well cell plate and cells were incubated overnight at 37° C., 5% (v/v) CO2. • 4. On the assay day, 2×dye solution was prepared following the manual of the FLIPR® Calcium 6 Assay Kit: i. The dye was diluted with assay buffer (20 mM HEPES in 1× HBSS, PH7.4); ii. Probenecid was added to the final concentration of 5 mM; iii. Vortex vigorously for 1-2 minutes. • 5. Medium was removed from cell plate by flicking the cell plate on towel papers. • 6. 10 μl of assay buffer and 10 μl of 2×dye solution was added to each well of the cell plate. • 7. The cell plate was placed on plate shaker, the plate was agitated at 600 rpm for 2 minutes. The plate was incubated at 37° C. for 2 hours followed by additional 15-minute incubation at 25° C. • 8. 3×compound in assay buffer was prepared: a. Reference compounds were diluted to required concentration with DMSO. The compounds were added to a 384-well compound plate; b. Serial dilutions were performed; c. 10 mM test compounds were added to the compound plate, and 3-fold serial dilutions were performed. d. Transfer 60 nl/well of compounds from source plate to a 384-well compound plate (Corning, 3657) by using an Echo; e. Add 20 μl/well assay buffer to the compound plate; f. Mix the plate on plate shaker for 2 mins; • 9. The cell plate, compound plate and tips were put into FLIPR, 10 μl of 3× compound was transferred to the cell plate per well with FLIPR.
• i. The normalized fluorescence reading (RFU) was calculated as shown below, where Fmax and Fmin stand for maximum and minimum of calcium signal during defined time window: RFU=Fmax−Fmin. • ii. Calculate the percentage activation using following equation:
[formula] • Iii. Calculate EC50 by fitting % activation against log of compound concentrations with Hill equation using XLfit.
Exemplary compounds of Formula I were evaluated functionally using FLIPR assay for their effect on h5-HT2A receptor under agonist mode.

[2] = Liver microsomes stability, human; settings: for Predicted hepatic CL: human liver microsomes; for Remaining Percentage / CLint scaled at 2 μM / half-life at 2 μM / microsomal CLint at 2 μM: human; for CLint scaled at 2 μM / half-life at 2 μM / microsomal CLint at 2 μM: pooled liver microsomes
Procedure: (§1) The objective of this study was to estimate in vitro metabolic stability of representative compounds of the application in pooled human and male mouse liver microsomes. The concentrations of parent compounds in reaction systems were evaluated by LC-MS/MS for estimating the stability in pooled human and male mouse liver microsomes. The in vitro intrinsic clearances of test compounds were determined as well.
(§2) A master solution in the “Incubation Plate” containing phosphate buffer, ultra-pure H2O, MgCl2 solution and liver microsomes was made according to Table 3. The mixture was pre-warmed at 37° C. water bath for 5 minutes.
(§3) 40 μL of 10 mM NADPH solution was added to each well. The final concentration of NADPH was 1 mM. The negative control samples were prepared by replacing NADPH with 40 μL of ultra-pure H2O. Samples were prepared in duplicate. Negative controls were prepared in singlet.
(§4) The reaction was started with the addition of 4 μL of 200 μM test compounds or control compounds to each master solution to get the final concentration of 2 μM. This study was performed in duplicate.
(§5) Aliquots of 50 μL were taken from the reaction solution at 0, 15, 30, 45 and 60 minutes. The reaction solutions were stopped by the addition of 4 volumes of cold methanol with IS (100 nM alprazolam, 200 nM imipramine, 200 nM labetalol and 2 μM ketoprofen). Samples were centrifuged at 3,220 g for 40 minutes. Aliquot of 90 μL of the supernatant was mixed with 90 μL of ultra-pure H2O and then was used for LC-MS/MS analysis.
(§6) LC/MS analysis was performed for all samples from this study using a Shimadzu liquid chromatograph separation system equipped with degasser DGU-20A5R; solvent delivery unit LC-30AD; system controller SIL-30AC; column oven CTO-30A; CTC Analytics HTC PAL System. Mass spectrometric analysis was performed using a Triple Quad™ 5500 instrument.
(§7) All calculations were carried out using Microsoft Excel. Peak areas were determined from extracted ion chromatograms. The slope value, k, was determined by linear regression of the natural logarithm of the remaining percentage of the parent drug vs. incubation time curve.
(§8) The in vitro half-life (in vitro t1/2) was determined from the slope value:
(§9) Conversion of the in vitro t1/2 (min) into the in vitro intrinsic clearance (in vitro CLint, in μL/min/mg proteins) was done using the following equation (mean of duplicate determinations): […]

[3] = Liver microsomes stability, mouse; settings: for CLint scaled at 2 μM / half-life at 2 μM / microsomal CLint at 2 μM: male, microsomes; for CLint scaled at 2 μM / half-life at 2 μM / microsomal CLint at 2 μM / Remaining Percentage: mouse; for Predicted hepatic CL: mouse liver microsomes
Procedure: as §1, §2, §3, §4, §5, §6, §7, §8, §9

[4] = Liver microsomes stability, rat; settings: rat; for CLint scaled at 2 μM / Predicted hepatic CL / half-life at 2 μM / microsomal CLint at 2 μM: liver microsomes

T1 sequence (P28223 whole entry): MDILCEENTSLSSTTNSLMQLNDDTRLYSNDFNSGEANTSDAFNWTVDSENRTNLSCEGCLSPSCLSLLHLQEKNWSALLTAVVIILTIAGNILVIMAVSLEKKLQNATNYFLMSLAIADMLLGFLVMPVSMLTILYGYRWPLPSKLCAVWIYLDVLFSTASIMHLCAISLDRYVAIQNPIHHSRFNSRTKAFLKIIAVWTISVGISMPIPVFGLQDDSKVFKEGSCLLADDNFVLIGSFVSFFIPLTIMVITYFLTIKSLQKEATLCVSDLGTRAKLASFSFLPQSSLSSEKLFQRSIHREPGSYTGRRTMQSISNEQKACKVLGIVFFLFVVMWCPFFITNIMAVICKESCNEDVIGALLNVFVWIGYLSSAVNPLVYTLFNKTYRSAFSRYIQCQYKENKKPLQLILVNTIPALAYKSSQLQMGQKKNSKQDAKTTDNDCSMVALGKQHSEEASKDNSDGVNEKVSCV

## COc1ccc2c(c1)C(CCN(C)C)CN2 (stereo not shown) [II-1, 2-(5-Methoxyindolin-3-yl)-N,N-dimethylethan-1-amine]
Male, C57BL/6J mice; 0.3 mg/kg SC
  head twitches (mean): 3.2
Male, C57BL/6J mice; 1 mg/kg SC
  head twitches (mean): 3.8
Male, C57BL/6J mice; 3 mg/kg SC
  head twitches (mean): 3.6
Male, C57BL/6J mice; 10 mg/kg SC
  head twitches (mean): 2.3
Male, C57BL/6J mice; 30 mg/kg SC, 2/5 mice
  mice with some 5-HT syndrome associated behaviours: 40%
Male, C57BL/6J mice; 30 mg/kg SC
  head twitches (mean): 4.2
Male, C57BL/6J mice; SC, dose range as in the sentence
  head twitch response (in words): only a modest head twitch response
Male, C57BL/6J mice; SC, psilocybin 3 and 10 mg/kg, 5-MeO DMT 3-30 mg/kg, II-1 0.3-30 mg/kg
  other behavioural signs (locomotion, core body temperature, 5-HT syndrome) in words: No overt signs of hypolocomotion or 5-HT syndrome
Male, C57BL/6J mice; at 30 mg/kg SC, mean±SEM
  peak head twitch response: 4.2±0.7 twitches
[1]
  RFU@10 μM: 1813 and 1180
  EC50: 202 nM and 274 nM
[2]
  Predicted hepatic CL: 14.13 mL/min/kg
  CLint scaled at 2 μM: 44.5 mL/min/kg
  half-life at 2 μM: 39 min
  microsomal CLint at 2 μM: 35.5 µL/min/mg
[2]; With NADPH, 0 min
  Remaining Percentage: 100.00%
[2]; With NADPH, 30 min
  Remaining Percentage: 65.37%
[2]; With NADPH, 60 min
  Remaining Percentage: 34.47%
[2]; Without NADPH, 0 min
  Remaining Percentage: 100.00%
[2]; Without NADPH, 30 min
  Remaining Percentage: 89.91%
[2]; Without NADPH, 60 min
  Remaining Percentage: 83.49%
[3]
  CLint scaled at 2 μM: 368 mL/min/kg
  half-life at 2 μM: 16.5 min
  microsomal CLint at 2 μM: 84.2 µL/min/mg
  Predicted hepatic CL: 72.33 mL/min/kg
[3]; With NADPH, 0 min
  Remaining Percentage: 100.00%
[3]; With NADPH, 30 min
  Remaining Percentage: 31.98%
[3]; With NADPH, 60 min
  Remaining Percentage: 8.00%
[3]; Without NADPH, 0 min
  Remaining Percentage: 100.00%
[3]; Without NADPH, 30 min
  Remaining Percentage: 117.83%
[3]; Without NADPH, 60 min
  Remaining Percentage: 113.85%
[4]; With NADPH, 0 min
  Remaining Percentage: 100.00%
[4]; With NADPH, 30 min
  Remaining Percentage: 20.42%
[4]; With NADPH, 60 min
  Remaining Percentage: 5.99%
[4]; Without NADPH, 0 min
  Remaining Percentage: 100.00%
[4]; Without NADPH, 30 min
  Remaining Percentage: 86.92%
[4]; Without NADPH, 60 min
  Remaining Percentage: 87.15%
[4]
  CLint scaled at 2 μM: 168 mL/min/kg
  Predicted hepatic CL: 41.56 mL/min/kg
  half-life at 2 μM: 14.8 min
  microsomal CLint at 2 μM: 93.8 µL/min/mg

## CN(C)CCC1CNc2ccccc21 (stereo not shown) [II-2, 2-(Indolin-3-yl)-N,N-dimethylethan-1-amine]
[1]
  RFU@10 μM: 544
  EC50: 1230 nM
[2]
  Predicted hepatic CL: 9.09 mL/min/kg
  CLint scaled at 2 μM: 16.2 mL/min/kg
  half-life at 2 μM: 107 min
  microsomal CLint at 2 μM: 12.9 µL/min/mg
[2]; With NADPH, 0 min
  Remaining Percentage: 100.00%
[2]; With NADPH, 30 min
  Remaining Percentage: 87.48%
[2]; With NADPH, 60 min
  Remaining Percentage: 67.85%
[2]; Without NADPH, 0 min
  Remaining Percentage: 100.00%
[2]; Without NADPH, 30 min
  Remaining Percentage: 100.69%
[2]; Without NADPH, 60 min
  Remaining Percentage: 86.47%
[3]
  CLint scaled at 2 μM: 165 mL/min/kg
  half-life at 2 μM: 36.7 min
  microsomal CLint at 2 μM: 37.7 µL/min/mg
  Predicted hepatic CL: 58.25 mL/min/kg
[3]; With NADPH, 0 min
  Remaining Percentage: 100.00%
[3]; With NADPH, 30 min
  Remaining Percentage: 57.37%
[3]; With NADPH, 60 min
  Remaining Percentage: 32.23%
[3]; Without NADPH, 0 min
  Remaining Percentage: 100.00%
[3]; Without NADPH, 30 min
  Remaining Percentage: 99.08%
[3]; Without NADPH, 60 min
  Remaining Percentage: 86.24%
[4]; With NADPH, 0 min
  Remaining Percentage: 100.00%
[4]; With NADPH, 30 min
  Remaining Percentage: 26.32%
[4]; With NADPH, 60 min
  Remaining Percentage: 10.29%
[4]; Without NADPH, 0 min
  Remaining Percentage: 100.00%
[4]; Without NADPH, 30 min
  Remaining Percentage: 92.41%
[4]; Without NADPH, 60 min
  Remaining Percentage: 83.54%
[4]
  CLint scaled at 2 μM: 136 mL/min/kg
  Predicted hepatic CL: 39.25 mL/min/kg
  half-life at 2 μM: 18.3 min
  microsomal CLint at 2 μM: 75.8 µL/min/mg
